Legend:
iBBB [1] = assay: Amyloid (Aβ-FITC) accumulation in iBBB; type: cell-based, human; conditions: APOE3/3 iBBB; APOE raised to approximately 200 ng/ml, E3 or E4; labeled Aβ for 96 hours
Description: (§1) Amyloid accumulation was determined using both neuronal cell conditioned media and 20 nM recombinant labeled Hilyte fluor 488 β-amyloid (1-40) (Anaspec, AS-60491-01) and β-amyloid (1-42) (Anaspec, AS-60479-01) resuspended in PBS. Aβ accumulation for each cell line and experimental permutation was determined from 2D cultures containing all three cells types containing same ratio of cells as 3D experiments. Total area positive for Aβ was divided by the total number of nuclei and normalized to experimental controls. At least four images for each biological replicate were analyzed and for each condition at least three biological replicates were employed. 2D quantifications were corroborated by 3D imaging and analysis.

iBBB [2] = test system: iBBB
From the text: To more fully assess the barrier properties of the iBBB we compared the paracellular permeability of molecules with molecular weights ranging from 0.1 to 80 kDa. […] To rule out the possibility that the reduced permeability of the iBBB was simply the result of additional layers of cells, we layered on top of BECs double the normal number of pericyte-only, astrocytes-only or a non-relevant cell type, mouse embryonic fibroblasts (MEFs).
The genotype distinction between APOE4/4 cells (isogenic) and APOE3/3 (parental) was assessed in terms of permeability of an iBBB membrane. FIG. 13A presents a schematic showing the iBBB with fluorescent molecules positioned on the Apical surface, which are then allowed to transition through the iBBB from the Apical surface to the Basolateral surface (FIG. 13B).

APOE = APOE gene expression in iPSC-derived pericytes after two weeks of CaN inhibition (qRT-PCR); type: cell-based, human
Description: Total RNA was isolated using Trizol and zymogen RNA-direct spin column treated with DNAse on column of 30 minutes prior to washing and elution. For RT-PCRs, 500 ng of total RNA was reverse transcribed into cDNA with iScript (BioRad). Expression was quantified by SsoFast EvaGreen supermix (BioRad). For RNAsequencing, extracted total RNA was subject to QC using an Advanced Analytical-fragment Analyzer before library preparation using Illumina Neoprep stranded RNA-seq library preparation kit. Libraries were pooled for sequencing using Illumina HiSeq2000 or NextSeq500 platforms at the MIT Biomicro Center. The raw fastq data were aligned to human hg19 assembly using STAR 2.4.0 RNA-seq aligner. Mapped RNA-seq reads covering the edited APOE3/4 site were used to validate data genotypes. Gene raw counts were generated from the mapped data using feature Counts tool. The mapped reads were also processed by Cufflinks2.2 with hg19 reference gene annotation to estimate transcript abundances. Gene differential expression test between APOE3 and APOE4 groups of each cell type was performed using Cuffdiff module with adjusted q-value <0.05 for statistical significance. Geometric method was chosen as the library normalization method for Cuffdiff. Color-coded scatterplots were used to visualize group FPKM values for differentially expressed genes and other genes.

E3/3 iBBB = assay: Amyloid accumulation in E3/3 iBBB exposed to conditioned media from inhibitor-treated E4/4 pericytes; type: cell-based, human; conditions: media harvested from inhibitor-treated E4/4 pericytes, versus DMSO
Description: as §1
We then added 20 nM Aβ1-40/42-FITC to the cultures for an additional 48 hours after which we quantified the accumulation of AP-FITC for each condition.

**Q.** For “recombinant human APOE protein: recombinant human APOE protein (E3 or E4) added to iBBB culture media”, which Aβ accumulation (iBBB [1]) is on record?
**A.** The Aβ accumulation was “increase”.

**Q.** Which “permeability and accumulation on the Basolateral surface, APOE4/4 iBBB versus parental APOE3/3 iBBB” value (iBBB [2]) does the source give for “Aβ42-FITC: FITC-labeled amyloid-β 1-42 peptide” here?
**A.** The value was “greater permeability”.

**Q.** With “transferrin: fluorescently labeled Transferrin (ThermoFisher T-13342), permeability tracer” as the molecule, how does the “permeability and accumulation on the Basolateral surface, APOE4/4 iBBB versus parental APOE3/3 iBBB” value (iBBB [2]) read?
**A.** The value was “greater permeability”.

**Q.** `O=C1C=CC(=O)C2=C1C1c3ccccc3C2c2ccccc21` [INCA6] was tested. Which APOE expression (APOE; APOE4/4 pericytes, two weeks, CsA 2 μM, FK506 5 μM, INCA6 5 μM, qRT-PCR) did it give?
**A.** The APOE expression was “significantly reduced”.

**Q.** What about the “expression of APOE” value (APOE; E3/4 heterozygous pericytes from three individuals) of the same molecule?
**A.** Its value is “significant reduction”.

**Q.** What about the amyloid accumulation (E3/3 iBBB) of the same molecule?
**A.** Its amyloid accumulation is “significantly reduced”.

— patent US20220090021A1, “IN VITRO HUMAN BLOOD BRAIN BARRIER” (Massachusetts Institute of Technology, priority 2019, published 2022)
